US20240327406A1, “POTASSIUM CHANNEL MODULATORS” (Autifony Therapeutics Limited, priority 2021, published 2024)
Marks after values point to notes of the source that are not given here.

How the values were obtained:
[1] = Determination of blood and brain tissue binding (equilibrium dialysis); format: in vitro ADME, Sprague Dawley rat; conditions: Sprague Dawley, 5 h at 37° C.; for fraction unbound at 5 h, 5 micromolar: 1:2 (w/v) in artificial CSF, rat brain homogenate, read-out: % FU Brain; for fraction unbound at 5 h, 0.5 micromolar: whole blood diluted 1:1 (v/v) with isotonic phosphate buffer, rat whole blood, read-out: % FU Blood
Procedure: Sprague Dawley rat whole blood, collected on the week of the experiment using K3-EDTA as an anti-coagulant, is diluted with isotonic phosphate buffer 1:1 (v/v). Sprague Dawley rat whole brain, stored frozen at −20° C., is thawed and homogenised in artificial cerebrospinal fluid (CSF) 1:2 (w/v).
An appropriate amount of test compound is dissolved in DMSO to give a 10 millimolar solution. Further dilutions, to obtain a 166.7 micromolar working solution are then prepared using 50% acetonitrile in MilliQ water. This working solution is used to spike the blood to obtain a final concentration of 0.5 micromolar in whole blood. Similarly, the working solution is used to spike brain samples to obtain a final concentration of 5 micromolar in whole brain. From these spiked blood and brain preparations, control samples (n=3), are immediately extracted and used to calculate the initial recovery of the test items.
150 microL of compound-free buffer (isotonic phosphate buffer for blood or artificial CSF buffer for brain) is dispensed in one half-well and 150 microL of spiked matrix (blood or brain) is loaded in the other half-well, with the two halves separated by a semi-permeable membrane. After an equilibration period of 5 h at 37° C., 50 microL of dialysed matrix (blood or brain) is added to 50 microL of corresponding compound-free buffer, and vice-versa for buffer, such that the volume of buffer to matrix (blood or brain) remains the same. Samples are then extracted by protein precipitation with 300 microL of acetonitrile containing rolipram (control for positive ionization mode) or diclofenac (control for negative ionization mode) as internal standards and centrifuged for 10 min at 3000 rpm. Supernatants are collected (100 microL), diluted with 27% AcN in MilliQ water (200 microL) and then injected into an HPLC-MS/MS or UPLC-MS/MS system to determine the concentration of test compound present.
Blood and brain tissue binding are then determined using the following formulas:
where Afu=apparent fraction unbound; Buffer=analyte/internal standard ratio determined in the buffer compartment; Blood=analyte/internal standard ratio determined in the blood compartment; Brain=analyte/internal standard ratio determined in the brain compartment.
where: fucr=Fraction unbound corrected; D=matrix dilution factor (D=2 for blood and D=3 for brain). then: […]

[2] = In vitro metabolic stability, rat liver microsomes; format: in vitro ADME; conditions: CLint expressed as mL/min/g liver
Procedure: (§1) The objective of this study was to determine metabolic stability of test items in rat and human liver microsomes. Verapamil and dextromethorphan were used as positive controls for microsomal incubation.
(§2) Incubation medium was prepared by combining 11.2 mL of potassium phosphate monobasic and 38.8 mL of potassium phosphate dibasic, diluted to 1 L with water. Cryopreserved microsomes were thawed and kept on ice until use. Microsomes were then diluted in incubation to a protein concentration of 0.56 mg/mL. […]
(§3) NADPH regenerating system solution was prepared by dissolving 1.7 mg of NADP, 7.8 mg of G6P and 6 units of G6P-Dehydrogenase in 1 mL of 2% sodium bicarbonate solution (prepared by dissolving 20 g of NaHCO3 in 1 L of water).
(§4) Test compounds were separately dissolved in DMF to obtain 10 mM stock solutions that were further diluted in water/acetonitrile 50/50 (v/v) to obtain the corresponding 50 μM working solutions. Verapamil and dextromethorphan were dissolved in DMF in order to obtain a 10 mM verapamil solution and 10 mM dextromethorphan solution. These solutions were then diluted in the incubation medium in order to obtain a 50 μM verapamil working solution and a 50 μM dextromethorphan working solution.
(§5) 800 μL-aliquots of NADPH regenerating system were pre-warmed at 37° C. for 5 minutes. 5 μL of 50 µM test compounds, verapamil or dextromethorphan were added to 445 μL of the 0.56 mg/mL microsomes solution and the incubation mixture was pre-warmed in a 96 deep well 2 mL plate (incubation plate) at 37° C. for 5 minutes. The incubation reactions were initiated by adding 50 μL of pre-warmed NADPH regenerating system to the incubation mixtures. 50 μL aliquots were taken from incubation mixtures at: 0, 3, 6, 9, 15, and 30 minutes and the reactions were stopped by adding 100 μL of aceronitrile with the corresponding internal standard. Samples were then diluted with 120 μL of water (final organic solvent percentage at 37%) and centrifuged at 3000 rpm for 10 minutes, prior the LC-MS/MS analysis.
(§6) Metabolic stability was calculated from the peak area ratio of the remaining test compound with internal standard versus time. The intrinsic clearance (CLint) was determined from the first order elimination constant k (min^−1) (obtained from GraphPad by plotting the natural logarithm of the peak area ratio of the remaining test item with internal standard versus time), using the actual volume of the incubation V (mL), the amount of hepatocytes in the incubation M (million cells) and the hepatocellularity number per a liver Hn (120 for human).

[3] = In vitro metabolic stability, human liver microsomes; format: in vitro ADME; conditions: CLint expressed as mL/min/g liver
Procedure: as §1, §2, §3, §4, §5, §6

[4] = molecular target: T1, Kv3.1 (Homo sapiens, UniProt P48547); conditions: Table 5, RE12 and RE13; based on EC50 value as reported in WO2021214090; cited from earlier work
T1 sequence (P48547 1-511): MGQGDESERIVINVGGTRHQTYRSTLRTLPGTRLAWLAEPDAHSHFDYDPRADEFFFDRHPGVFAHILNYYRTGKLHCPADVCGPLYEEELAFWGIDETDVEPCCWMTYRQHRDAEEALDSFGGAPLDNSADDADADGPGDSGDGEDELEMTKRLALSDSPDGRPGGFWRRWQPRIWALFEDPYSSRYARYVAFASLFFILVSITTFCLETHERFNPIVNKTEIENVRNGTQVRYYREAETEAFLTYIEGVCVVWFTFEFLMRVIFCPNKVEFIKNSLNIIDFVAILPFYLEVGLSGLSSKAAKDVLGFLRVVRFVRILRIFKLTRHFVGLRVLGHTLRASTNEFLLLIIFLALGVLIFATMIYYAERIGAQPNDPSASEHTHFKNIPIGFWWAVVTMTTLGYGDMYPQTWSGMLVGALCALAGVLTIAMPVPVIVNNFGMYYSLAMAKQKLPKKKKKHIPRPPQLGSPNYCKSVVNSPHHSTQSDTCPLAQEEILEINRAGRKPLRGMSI

| SMILES | fraction unbound at 5 h, 5 micromolar [1] | fraction unbound at 5 h, 0.5 micromolar [1] | Cli rat [2] | Cli human [3] | Kv3.1 pEC50 [4] |
| --- | --- | --- | --- | --- | --- |
| Cc1ccc(Oc2ccc(-n3c(=O)[nH]c4cncnc43)cn2)cc1OC(F)(F)F [RE12, reference compound] | 0.006 | 0.007 | 1.5 mL/min/g | 1.7 mL/min/g | 5.2* |
| Cc1ccc(Oc2ccc(-n3c(=O)[nH]c4cnccc43)cn2)cc1OC(F)(F)F [RE13, reference compound] | 0.005 | 0.013 | 1.3 mL/min/g | 0.6 mL/min/g | 5.6** |
